One may read the Ki as the dissociation constant of the complex between target and ligand, obtained from inhibition or displacement. Broadly, the melting point is the temperature of the solid-liquid transition.

The target of series [1] is human D2 receptor (Homo sapiens (Human), UniProt P14416). The series can be described thus: Radioligand binding ([3H]-spiperone) to cloned receptors expressed in HEK-293 EBNA cells. The settings on record: HEK293 EBNA cell membranes expressing human D2. Summed up:
(§1)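 Membranes from transiently transfected HEK293 EBNA cells incubated 1 h at RT with ten compound concentrations (10 μM–0.1 nM). D2/D3: [3H]-spiperone ~0.7/0.5 nM, Tris–NaCl–Mg/Ca buffer pH 7.4; 5-HT2A: [3H]-ketanserin 1.1 nM, Tris–MgCl2–EGTA pH 7.4.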

For series [2], the target named is human D3 receptor (Homo sapiens (Human), UniProt P35462). The description is as above. The settings on record: HEK293 EBNA cell membranes expressing human D3. Summed up: as §1
Sequence of human D3 receptor (P35462 whole entry): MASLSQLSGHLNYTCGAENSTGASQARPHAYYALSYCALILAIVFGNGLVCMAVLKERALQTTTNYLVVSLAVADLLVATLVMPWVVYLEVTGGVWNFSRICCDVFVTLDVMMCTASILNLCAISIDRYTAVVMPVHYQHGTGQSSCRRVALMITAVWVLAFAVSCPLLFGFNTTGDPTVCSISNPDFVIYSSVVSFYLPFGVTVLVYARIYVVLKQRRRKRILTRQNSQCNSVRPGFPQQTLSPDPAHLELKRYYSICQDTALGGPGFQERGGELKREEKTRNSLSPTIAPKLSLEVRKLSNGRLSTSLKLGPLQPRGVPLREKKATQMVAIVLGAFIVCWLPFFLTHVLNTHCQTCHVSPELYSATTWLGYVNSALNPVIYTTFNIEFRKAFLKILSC
The target of series [3] is human 5-HT2A receptor (Homo sapiens (Human), UniProt P28223). The experiment in a line: Radioligand binding ([3H]-ketanserin) to cloned receptors expressed in HEK-293 EBNA cells. The note with it: HEK293 EBNA cell membranes expressing human 5-HT2A. Summed up: as §1
Sequence of human 5-HT2A receptor (P28223 whole entry): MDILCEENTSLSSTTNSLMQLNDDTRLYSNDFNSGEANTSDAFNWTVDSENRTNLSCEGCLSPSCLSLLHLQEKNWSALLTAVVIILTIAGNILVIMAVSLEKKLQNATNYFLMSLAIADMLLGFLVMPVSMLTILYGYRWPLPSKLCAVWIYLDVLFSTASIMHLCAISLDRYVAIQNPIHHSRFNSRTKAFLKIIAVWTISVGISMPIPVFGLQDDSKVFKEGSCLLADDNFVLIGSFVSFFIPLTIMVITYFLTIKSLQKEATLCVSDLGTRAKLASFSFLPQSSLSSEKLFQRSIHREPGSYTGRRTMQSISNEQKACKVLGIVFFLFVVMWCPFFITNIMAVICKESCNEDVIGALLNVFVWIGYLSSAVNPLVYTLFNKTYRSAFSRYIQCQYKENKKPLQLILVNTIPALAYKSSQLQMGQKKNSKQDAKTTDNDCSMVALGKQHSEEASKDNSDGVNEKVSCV

Sequence of human D2 receptor (P14416 whole entry): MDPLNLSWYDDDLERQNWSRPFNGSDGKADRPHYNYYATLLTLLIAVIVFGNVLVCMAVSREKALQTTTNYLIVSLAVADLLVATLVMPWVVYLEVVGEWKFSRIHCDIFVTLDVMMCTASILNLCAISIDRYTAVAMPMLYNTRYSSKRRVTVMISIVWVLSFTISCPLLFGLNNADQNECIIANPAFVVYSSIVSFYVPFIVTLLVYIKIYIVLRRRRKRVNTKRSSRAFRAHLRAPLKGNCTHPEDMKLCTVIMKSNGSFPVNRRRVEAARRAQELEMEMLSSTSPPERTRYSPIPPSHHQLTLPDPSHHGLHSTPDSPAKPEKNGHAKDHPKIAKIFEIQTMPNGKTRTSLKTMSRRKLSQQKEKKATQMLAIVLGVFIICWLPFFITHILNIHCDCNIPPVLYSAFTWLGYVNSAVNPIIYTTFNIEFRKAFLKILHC

Regarding `C/C=C/CC(=O)N[C@H]1CC[C@H](CCN2CCC(c3cccc4c3CCO4)CC2)CC1` [Example 85, (E)-Pent-3-enoic acid trans-(4-{2-[4-(2,3-dihydro-benzofuran-4-yl)-piperidin-1-yl]-ethyl}-cyclohexyl)-amide], the melting point came out at 196 °C. The Ki in series [1] worked out at 438 nM. The Ki in series [2] amounted to 5.79 nM. Also, the Ki in series [3] was 77.3 nM.

Consider `CC#CC(=O)N[C@H]1CC[C@H](CCN2CCC(c3cccc4c3CCO4)CC2)CC1` [Example 86, But-2-ynoic acid trans-(4-{2-[4-(2,3-dihydro-benzofuran-4-yl)-piperidin-1-yl]-ethyl}-cyclohexyl)-amide], for which the melting point came to 195 °C. In series [1], the Ki is 118 nM. Further, the Ki in series [2] was 7.3 nM. The Ki in series [3] was 45.9 nM.

`O=CN[C@H]1CC[C@H](CCN2CCC(c3cccc4c3CCO4)CC2)CC1` [Example 87, trans-N-(4-{2-[4-(2,3-Dihydro-benzofuran-4-yl)-piperidin-1-yl]-ethyl}-cyclohexyl)-formamide] returned a melting point of 142 °C. Further, the Ki in series [1] was 167 nM. In addition, the Ki in series [2] came out at 11.5 nM. For the same molecule, in series [3], the Ki came out at 107 nM.

`CC(C)(C)Oc1ccc(C(=O)N[C@H]2CC[C@H](CCN3CCC(c4cccc5c4CCO5)CC3)CC2)cc1` [Example 88, trans-4-tert-Butoxy-N-(4-{2-[4-(2,3-dihydro-benzofuran-4-yl)-piperidin-1-yl]-ethyl}-cyclohexyl)-benzamide]: the melting point is 216 °C. Besides, the “D2 Ki” value in series [1] is “inactive”. The Ki in series [2] was found to be 22.2 nM. In series [3], the Ki was determined as 42.8 nM.

Molecule `O=C(N[C@H]1CC[C@H](CCN2CCC(c3cccc4c3CCO4)CC2)CC1)c1ccc(Cl)cc1Cl` [Example 89, trans-2,4-Dichloro-N-(4-{2-[4-(2,3-dihydro-benzofuran-4-yl)-piperidin-1-yl]-ethyl}-cyclohexyl)-benzamide] yielded a melting point of 188 °C. Also, the Ki in series [1] was 234 nM. The Ki in series [2] worked out at 8.28 nM. Also, the Ki in series [3] was 31.5 nM.

Regarding `O=C(N[C@H]1CC[C@H](CCN2CCC(c3cccc4c3CCO4)CC2)CC1)c1ccc(-n2cccc2)cc1` [Example 90, trans-N-(4-{2-[4-(2,3-Dihydro-benzofuran-4-yl)-piperidin-1-yl]-ethyl}-cyclohexyl)-4-pyrrol-1-yl-benzamide], the melting point was 228 °C. For the same molecule, the Ki in series [1] is 85.1 nM. The Ki in series [2] amounted to 10.5 nM. For the same molecule, the inhibition constant (Ki) in series [3] stood at 30.4 nM.

Regarding `O=C(N[C@H]1CC[C@H](CCN2CCC(c3cccc4c3CCO4)CC2)CC1)c1ccc(-c2ccccc2)cc1` [Example 91, Biphenyl-4-carboxylic acid trans-(4-{2-[4-(2,3-dihydro-benzofuran-4-yl)-piperidin-1-yl]-ethyl}-cyclohexyl)-amide], the melting point was 241 °C. In addition, in series [1], the Ki came to 501 nM. For the same molecule, in series [2], the inhibition constant (Ki) is 7.81 nM. Besides, the Ki in series [3] turned out to be 28.1 nM.

Consider `O=C(N[C@H]1CC[C@H](CCN2CCC(c3cccc4c3CCO4)CC2)CC1)c1ccc(-c2cccnc2)cc1` [Example 92, trans-N-(4-{2-[4-(2,3-Dihydro-benzofuran-4-yl)-piperidin-1-yl]-ethyl}-cyclohexyl)-4-pyridin-3-yl-benzamide], for which the melting point was determined as 224 °C. Moreover, the inhibition constant Ki in series [1] was determined as 99.8 nM. In addition, in series [2], the Ki was 5.35 nM. Besides, in series [3], the inhibitory constant (Ki) came out at 25.4 nM.

For `O=C(Cc1noc2ccccc12)N[C@H]1CC[C@H](CCN2CCC(c3cccc4c3CCO4)CC2)CC1` [Example 93, trans-2-Benzo[d] isoxazol-3-yl-N-(4-{2-[4-(2,3-dihydro-benzofuran-4-yl)-piperidin-1-yl]-ethyl}-cyclohexyl)-acetamide], the melting point was 214 °C. The inhibition constant Ki in series [1] came to 244 nM. The inhibition constant (Ki) in series [2] stood at 3.21 nM. Besides, in series [3], the Ki is 30.7 nM.

For `O=C(Cc1ccc2c(c1)OCO2)N[C@H]1CC[C@H](CCN2CCC(c3cccc4c3CCO4)CC2)CC1` [Example 94, trans-2-Benzo[1,3]dioxol-5-yl-N-(4-{2-[4-(2,3-dihydro-benzofuran-4-yl)-piperidin-1-yl]-ethyl}-cyclohexyl)-acetamide], the melting point amounted to 209 °C. In addition, in series [1], the Ki worked out at 721 nM. In series [2], the Ki is 3.65 nM. Also, the Ki in series [3] turned out to be 45.3 nM.

The molecule `CS(=O)(=O)c1ccc(C(=O)N[C@H]2CC[C@H](CCN3CCC(c4cccc5c4CCO5)CC3)CC2)cc1` [Example 95, trans-N-(4-{2-[4-(2,3-Dihydro-benzofuran-4-yl)-piperidin-1-yl]-ethyl}-cyclohexyl)-4-methanesulfonyl-benzamide] showed a melting point of 236 °C. In series [1], the Ki was 162 nM. Besides, the Ki in series [2] worked out at 14 nM. In addition, in series [3], the inhibition constant Ki was 14.7 nM.

(Values after patent US8877778B2, “Benzofurane compounds” (Hoffmann-La Roche Inc., priority 2010, dated 2014).)
